The values that follow come from patent EP3470068B1, “ANTIBACTERIAL COMPOSITIONS WITH ENHANCED ACTIVITY” (Università degli Studi di Parma, priority 2017, dated 2019).

Experiment [1] concerns Candida albicans ATCC 11006. As to the kind of experiment: MIC by serial microdilution in liquid culture. The experiment is classed as cell-based. The conditions noted are these: C. albicans ATCC 11006; phosphate buffer 10 mM with 40% Müller Hinton broth, 48 hours at 37°C. As to the method: (§1) For each fungal strain 3-5 morphologically similar colonies were collected from fresh cultures, inoculated in Brain Heart Infusion broth medium and then incubated at 37°C in agitation at 225 r.p.m. for 6-8 hours. Subsequently, the fungal suspension was centrifuged at 1000 r.p.m. for 20 minutes and the obtained pellet was resuspended in phosphate buffer 10 mM and diluted to a turbidity equal to 5 of McFarland standard, corresponding to a concentration of 10^8 CFU/ml. Fungal suspension was diluted 1:100 in phosphate buffer 10 mM, then, within 30 minutes, 50 µl of this bacterial suspension (10^6 CFU/ml) were inoculated in each well of microtiter plate to obtain a final concentration of about 5 x 10^5 CFU/ml.
(§2) The different molecules were tested for their ability to inhibit bacterial and fungal growth in broth culture. Single molecules were diluted in phosphate buffer 10 mM with 40% of Müller Hinton broth. 50 µl of diluted molecules were added to microtiter U plate wells with phosphate buffer and 40% of Müeller Hinton broth and a suspension of one of these strains: Escherichia coli ATCC 25922, Pseudomonas aeruginosa ATCC 27853, Staphylococcus aureus ATCC 25923, MRSA ATCC 43300, Candida albicans ATCC 11006 or Malassezia pachydermatis DSMZ 6172. […]
Background: Broth dilution looks for growth in wells or tubes with falling amounts of substance.

Experiment [2] deals with Malassezia pachydermatis DSMZ 6172. The experiment is described as follows: MIC by serial microdilution in liquid culture. The experiment is classed as cell-based. The conditions noted are these: M. pachydermatis DSMZ 6172; phosphate buffer 10 mM with 40% Müller Hinton broth, 48 hours at 37°C. As for the experimental part:
as §1, §2

Experiment [3] has as its system Gram negative. The experiment is described as follows: MIC by serial microdilution. Particulars: used alone. The class given is cell-based. As for the experimental part: (§3) For each bacterial strain 3-5 morphologically similar colonies from fresh cultures were taken, inoculated in Brain Heart Infusion broth medium and then incubated at 37°C in agitation at 225 r.p.m. for about 3-4 hours. Subsequently, the bacterial suspension was centrifuged at 1000 r.p.m. for 20 minutes and the obtained pellet was resuspended in phosphate buffer 10 mM. Turbidity of the bacterial suspension was measured by evaluating the absorbance using a spectrophotometer at 600 nm. The range 0,08-0,13 equates to a concentration of about 10^8 CFU/ml. The bacterial suspension was diluted 1:100 in phosphate buffer 10 mM, then, within 30 minutes, 50 µl of this bacterial suspension (10^6 CFU/ml) were inoculated in each well of the microtiter plate to obtain a final bacterial concentration of about 5 x 10^5 CFU/ml.
as §2

The subject of experiment [4] is Gram positive bacteria. As to the kind of experiment: MIC by serial microdilution. The experiment is classed as cell-based. Particulars: used alone. As for the experimental part:
as §3, §2

The subject of experiment [5] is Staphylococcus aureus ATCC 25923. As to the kind of experiment: MIC by serial microdilution in liquid culture. The experiment is classed as cell-based. The conditions noted are these: S. aureus ATCC 25923; phosphate buffer 10 mM with 40% Müller Hinton broth, 24 hours at 37°C. As to the method: as §3
(§4) The different molecules were tested for their ability to inhibit bacterial and fungal growth in broth culture. Single molecules were diluted in phosphate buffer 10 mM with 40% of Müller Hinton broth. 50 µl of diluted molecules were added to microtiter U plate wells with phosphate buffer and 40% of Müeller Hinton broth and a suspension of one of these strains: Escherichia coli ATCC 25922, Pseudomonas aeruginosa ATCC 27853, Staphylococcus aureus ATCC 25923, MRSA ATCC 43300, Candida albicans ATCC 11006 or Malassezia pachydermatis DSMZ 6172.
(§5) For bacterial strains the different molecules were tested at the following concentrations: • NCP-3: from 0,2 µg/ml to 50 µg/ml • Benzalkonium chloride: from 0,00008% to 0,04% • Thimerosal: from 0,0008% to 0,4% • Tris/EDTA: from 0,4%/0,1% to 0,0008%/0,0002%
(§6) Bacterial and fungal growth controls were cultured in absence of antimicrobial molecules. Microtiter plates were incubated 24 or 48 hours (bacterial and fungal strains, respectively) at 37°C and subsequently MIC was determined for each molecule against each strain.

Experiment [6] deals with Pseudomonas aeruginosa ATCC 27853. As to the kind of experiment: MIC by serial microdilution in liquid culture. The experiment is classed as cell-based. Particulars: P. aeruginosa ATCC 27853; phosphate buffer 10 mM with 40% Müller Hinton broth, 24 hours at 37°C. As for the experimental part: as §3, §4, §5, §6
The subject of experiment [7] is Escherichia coli ATCC 25922. As to the kind of experiment: MIC by serial microdilution in liquid culture. The conditions noted are these: E. coli ATCC 25922; phosphate buffer 10 mM with 40% Müller Hinton broth, 24 hours at 37°C. The class given is cell-based. As for the experimental part:
as §3, §4, §5, §6

Experiment [8] relates to MRSA ATCC 43300. As to the kind of experiment: MIC by serial microdilution in liquid culture. Particulars: phosphate buffer 10 mM with 40% Müller Hinton broth, 24 hours at 37°C. The class given is cell-based, Methicillin Resistant Staphylococcus aureus (MRSA). As for the experimental part: as §3, §2
Experiment [9] relates to Staphylococcus aureus ATCC 25923. As to the kind of experiment: LD90/LD99 by microdilution and agar plating (CFU count). The class given is cell-based. The conditions noted are these: S. aureus ATCC 25923; two hours contact at 37°C, plated on agar, CFU counted. As to the method:
as §3, with “colonies were collected” for “colonies”, “fresh cultures,” for “fresh cultures were taken,”, “CFU/ml. the” for “CFU/ml. The”
(§7) Different molecules were tested for their ability to inhibit bacterial and fungal growth in broth culture. 50 µl of molecules at the indicated below concentrations were added to microtiter U plate 96 wells with phosphate buffer and a suspension of one of these strains: Escherichia coli ATCC 25922, Pseudomonas aeruginosa ATCC 27853, Staphylococcus aureus ATCC 25923, MRSA ATCC 43300, Candida albicans ATCC 11006 or Malassezia pachydermatis DSMZ 6172.
(§8) The following concentrations of the different molecules were tested: • NCP-3: from 0,2 µg/ml to 50 µg/ml • Benzalkonium chloride: from 0,00008% to 0,04% • Thimerosal: from 0,0008% to 0,4% • Tris/EDTA: from 0,4%/0,1% to 0,0008%/0,0002%
(§9) The bacterial or fungal suspension has been contacted for two hours with the different antimicrobial molecules at 37°C. After incubation, 20 µl of solution were withdrawn from each dilution and plated on agar medium, Columbia with 5% of bovine erythrocytes for bacterial strains and Sabouraud agar for fungal strains. The inoculum was uniformly distributed on agar plates with a sterile disposable handle. After incubation at 37°C for 24 hours for bacterial strains and 48 hours for fungal strains, colonies (CFU) were counted.

The subject of experiment [10] is Pseudomonas aeruginosa ATCC 27853. The description is as above. The class given is cell-based. Particulars: P. aeruginosa ATCC 27853; two hours contact at 37°C, plated on agar, CFU counted. As for the experimental part: as §3, with “colonies were collected” for “colonies”, “fresh cultures,” for “fresh cultures were taken,”, “CFU/ml. the” for “CFU/ml. The”
as §7, §8, §9

The subject of experiment [11] is Escherichia coli ATCC 25922. The description is as above. The experiment is classed as cell-based. The conditions noted are these: E. coli ATCC 25922; two hours contact at 37°C, plated on agar, CFU counted. As for the experimental part:
as §3, with “colonies were collected” for “colonies”, “fresh cultures,” for “fresh cultures were taken,”, “CFU/ml. the” for “CFU/ml. The”
as §7, §8, §9

Experiment [12] deals with Candida albicans ATCC 11006. The description is as above. The experiment is classed as cell-based. Particulars: C. albicans ATCC 11006; two hours contact at 37°C, plated on Sabouraud agar, CFU counted. As for the experimental part:
as §1, with “The fungal” for “Fungal”
as §7, §8, §9

Experiment [13] has as its system Malassezia pachydermatis DSMZ 6172. Described as above. The experiment is classed as cell-based. The conditions noted are these: M. pachydermatis DSMZ 6172; two hours contact at 37°C, plated on Sabouraud agar, CFU counted. As for the experimental part:
as §1, with “The fungal” for “Fungal”
as §7, §8, §9

The subject of experiment [14] is MRSA ATCC 43300. The description is as above. Particulars: two hours contact at 37°C, plated on agar, CFU counted. The class given is cell-based, Methicillin Resistant Staphylococcus aureus (MRSA). As to the method: as §3, with “colonies were collected” for “colonies”, “fresh cultures,” for “fresh cultures were taken,”, “CFU/ml. the” for “CFU/ml. The”
Different molecules were tested for their ability to inhibit bacterial and fungal growth in broth culture. […]
The bacterial or fungal suspension has been contacted for two hours with the different antimicrobial molecules at 37°C. […] After incubation at 37°C for 24 hours for bacterial strains and 48 hours for fungal strains, colonies (CFU) were counted.

The structures appear in SMILES notation. Peptide text beside a SMILES is read from it.

Regarding `CC[C@H](C)[C@H](NC(=O)[C@H](CCCCN)NC(=O)[C@H](Cc1ccc(O)cc1)NC(=O)[C@H](Cc1ccccc1)NC(=O)[C@H](CC(C)C)NC(=O)[C@H](CC(N)=O)NC(=O)[C@H](CCCCN)NC(=O)[C@@H](NC(=O)[C@H](C)NC(=O)[C@@H]1CCCN1C(=O)[C@@H](NC(=O)[C@@H](NC(=O)[C@H](CCCCN)NC(=O)[C@H](CO)NC(=O)[C@H](CC(C)C)NC(=O)[C@@H](NC(=O)[C@H](Cc1c[nH]c2ccccc12)NC(=O)[C@@H](NC(=O)[C@H](CC(C)C)NC(=O)[C@@H](N)CCCCN)[C@@H](C)CC)[C@@H](C)CC)[C@@H](C)O)[C@@H](C)CC)[C@@H](C)CC)C(=O)O` [NCP-3] (H-KLIWILSKTIPAIKNLFYKI-OH), the MIC is 12,5 µg/ml in experiment [1]; 3,1 µg/ml in experiment [2]; 6,3 µg/ml in experiment [3]; 3,2 µg/ml in experiment [4]; 3,1 µg/ml in experiment [5]; 6,3 µg/ml in [6]. Further, the MIC in experiment [7] and in experiment [8] was 6,3 µg/ml throughout. In addition, the LD90 in experiment [9] was >1,6 µg/ml; in experiment [10] it was 6,3 µg/ml; in [11] it was 6,3 µg/ml; in experiment [12] it was >6,3 µg/ml; in experiment [13], >1,6 µg/ml; in experiment [14], 6,3 µg/ml. Also, the LD99 in experiment [9] is given as 6,3 µg/ml; in [10], 12,5 µg/ml; in experiment [11] it was 12,5 µg/ml; in [12], 12,5 µg/ml; in experiment [13], 3,2 µg/ml; in experiment [14], 12,5 µg/ml.
